In one series the test system is HEK-Blue IL-6. As to the kind of experiment: Inhibition of IL-6/JAK/STAT3 signalling pathway in HEK-Blue IL-6 cells at 10 uM incubated for 16 hrs by QUANTI-blue assay relative to control. The note with it: Homo sapiens. It is filed as cell-based.
The nature of series [1]: Inhibition of IL-6/JAK/STAT3 signalling pathway in HEK-Blue IL-6 cells incubated for 16 hrs by QUANTI-blue assay. It is filed as cell-based. The note with it: Homo sapiens, HEK-Blue IL-6, 16 h.
The test system of series [2] is DU-145. Nature of the series: Antiproliferative activity against human DU-145 cells assessed as inhibition of cell growth at 10 uM measured after 96 hrs by MTT assay relative to control. It is filed as functional. (In general: Tetrazolium assays rely on reduction of a dye to a coloured formazan, in cell work by metabolically active cells.)
For series [3], the system named is DU-145. As to the kind of experiment: Antiproliferative activity against human DU-145 cells assessed as inhibition of cell growth measured after 96 hrs by MTT assay. It is filed as functional, cell-based. The settings on record: DU-145, 96 h.
Series [4] has as its system MDA-MB-231. Nature of the series: Antiproliferative activity against human MDA-MB-231 cells assessed as inhibition of cell growth at 10 uM measured after 96 hrs by MTT assay relative to control. It counts as functional.
The test system of series [5] is MDA-MB-231. Nature of the series: Antiproliferative activity against human MDA-MB-231 cells assessed as inhibition of cell growth measured after 96 hrs by MTT assay. It is filed as functional, cell-based. The note with it: MDA-MB-231, 96 h.
Series [6] can be described thus: Metabolic stability in human liver microsomes at 10 uM measured after 120 mins in presence of NADPH-GS by HPLC-MS/MS analysis. It is filed as ADME, Microsome. The settings on record: read-out: Stability.
Series [7] can be described thus: Metabolic stability in mouse liver microsomes assessed as half life in presence of NADPH/UDPGA. It counts as ADME, Microsome.
Series [8] is described as follows: Metabolic stability in mouse liver microsomes assessed as intrinsic clearance in presence of NADPH/UDPGA. It is filed as ADME, Microsome. The settings on record: read-out: CLH. Background: Liver microsomes are vesicles of endoplasmic reticulum, rich in cytochrome P450 enzymes.
The nature of series [9]: Solubility of compound in water incubated for 10 mins. It counts as physicochemical.

Converted amounts (≈) assume the structure as drawn.

This note sets out measurements from ChEMBL document CHEMBL5321275, “Discovery, Optimization, and Evaluation of Novel N-(Benzimidazol-5-yl)-1,3,4-thiadiazol-2-amine Analogues as Potent STAT3 Inhibitors for Cancer Treatment” (J Med Chem, 2023).

A word on the inhibition: it is the relative decrease from the control value, in per cent. As usually defined, the IC50 is the midpoint of a concentration-inhibition curve. For `CCCn1c(-c2ccc(F)cc2)nc2cc(Nc3nnc(-c4cc(OC)c(OC)c(OC)c4)s3)c(N3CCN(C)CC3)cc21`, in the series with HEK-Blue IL-6, the inhibition is 108%. Moreover, the IC50 in [1] was found to be 2.38 µM; in the series with DU-145 [3] it was 4.42 µM; in the series with MDA-MB-231 [5], 0.8 µM. Further, the inhibition at 10 µM in the series on DU-145 [2] came to 80.7%; with MDA-MB-231 [4] it was 94.5%. Moreover, the remaining at 2 h, 10 µM in series [6] came to 25%.
The half-life is the time needed for the level to fall by half in the phase considered. For `O=c1ccc2ccc(O)cc2o1` [UMBELLIFERONE], in [7], the half-life was 1.54 min. Moreover, the microsomal CLint in [8] was determined as 902 µL/min/mg.
For orientation: solubility means how much of the substance goes into solution per volume. As for `COc1cc(-c2nnc(Nc3cc4nc(-c5ccc(F)cc5)n(C5CC5)c4cc3N3CCN(C)CC3)s2)cc(OC)c1OC`, in the series with HEK-Blue IL-6, the inhibition is 95.7%. The IC50 in [1] worked out at 4.51 µM; in the series on DU-145 [3], 1.05 µM; in the series on MDA-MB-231 [5], 0.82 µM. Also, the inhibition at 10 µM in the series on DU-145 [2] worked out at 87.3%; with MDA-MB-231 [4], 92.5%. In addition, the remaining at 2 h, 10 µM in series [6] came to 32.5%. Further, the solubility at 10 min in [9] came out at 5.95 µg/mL (≈ 9.66 µM).
Take `CN1CCN(c2cc3c(cc2Nc2nnc(-c4ccccc4)s2)nc(-c2ccccc2)n3C2CC2)CC1`: the inhibition in the series on HEK-Blue IL-6 was determined as 78.1%. The values for the IC50 (in series [1]; with DU-145 [3]; in the series on MDA-MB-231 [5]) were 1.99 µM, 9.17 µM and 5.92 µM, respectively. Moreover, the results for the inhibition at 10 µM in the series on DU-145 [2] and with MDA-MB-231 [4] were 47% and 83.3%, respectively.
Consider `COc1cc(-c2nnc(Nc3cc4nc(-c5ccc(F)cc5)n(C5CC5)c4cc3F)s2)cc(OC)c1OC`, for which the inhibition in the series on HEK-Blue IL-6 was determined as 83.5%. The half-inhibitory concentration (IC50) in series [1] is 1.09 µM; in the series on DU-145 [3], more than 10 µM; in the series on MDA-MB-231 [5] it was more than 10 µM. Also, the inhibition at 10 µM with DU-145 [2] is -10.3%; in the series with MDA-MB-231 [4], -11.5%.
Take `Fc1ccc(-c2nc3cc(Nc4nnc(-c5cccc(Cl)c5)s4)c(F)cc3n2C2CC2)cc1`: the inhibition with HEK-Blue IL-6 is 67.8%. The IC50 in series [1] was 3.37 µM; in the series on DU-145 [3] it was more than 10 µM; in the series with MDA-MB-231 [5] it was more than 10 µM. Also, the inhibition at 10 µM in the series on DU-145 [2] was -7.76%; in the series with MDA-MB-231 [4], -2.05%.
Turning to `CCCn1c(-c2ccc(F)cc2)nc2cc(Nc3nnc(-c4cccc(C(F)(F)F)c4)s3)c(N3CCN(C)CC3)cc21`, the inhibition with HEK-Blue IL-6 was found to be 5.21%. The IC50 was more than 10 µM in [1], 9.73 µM in the series with DU-145 [3] and 6.63 µM with MDA-MB-231 [5]. The inhibition at 10 µM in the series with DU-145 [2] was determined as 55.6%; with MDA-MB-231 [4], 90.1%.
Turning to `CCOc1cc2c(cc1Nc1nnc(-c3cccc(C#N)c3)s1)nc(-c1ccc(F)cc1)n2C1CC1`, the inhibition with HEK-Blue IL-6 was found to be 92.5%. Further, the IC50 in [1] is 0.52 µM; in the series on DU-145 [3], more than 10 µM; with MDA-MB-231 [5] it was more than 10 µM. The inhibition at 10 µM in the series with DU-145 [2] is 14%; in the series with MDA-MB-231 [4] it was -5.91%.
Regarding `Fc1cc2c(cc1Nc1nnc(-c3cccc(C(F)(F)F)c3)s1)nc(-c1cccc(C(F)(F)F)c1)n2C1CC1`, the inhibition with HEK-Blue IL-6 amounted to 72.8%. Further, the IC50 was 1.53 µM in [1], more than 10 µM with DU-145 [3] and more than 10 µM in the series on MDA-MB-231 [5]. The inhibition at 10 µM was -0.72% in the series with DU-145 [2] and 4.54% with MDA-MB-231 [4].
On to `CC(C)c1ccc(-c2nnc(Nc3cc4nc(-c5ccc(F)cc5)n(C5CC5)c4cc3F)s2)cc1`, for which the inhibition in the series on HEK-Blue IL-6 came out at 61.9%. The figures for the IC50 (in [1]; with DU-145 [3]; with MDA-MB-231 [5]) were 7.88 µM, more than 10 µM and more than 10 µM, respectively. For the same compound, the results for the inhibition at 10 µM with DU-145 [2] and in the series with MDA-MB-231 [4] were 17.9% and 1.85%, respectively.
Regarding `CCCCn1c(-c2ccc(F)cc2)nc2cc(Nc3nnc(-c4ccccc4)s3)c(N3CCN(C)CC3)cc21`, the inhibition with HEK-Blue IL-6 worked out at 80.7%. Besides, the results for the IC50 (in series [1]; in the series with DU-145 [3]; in the series on MDA-MB-231 [5]) were 3.51 µM, more than 10 µM and more than 10 µM, respectively. The inhibition at 10 µM in the series on DU-145 [2] was -9.69%; in the series on MDA-MB-231 [4], -14.4%.
Regarding `O=[N+]([O-])c1ccc2c(c1)S(=O)(=O)C=C2`, in the series on HEK-Blue IL-6, the inhibition worked out at 107%. Moreover, the results for the IC50 (in series [1]; in the series with DU-145 [3]; in the series with MDA-MB-231 [5]) were 2.21 µM, 1.84 µM and 1.66 µM, respectively. Moreover, the inhibition at 10 µM in the series with DU-145 [2] stood at 79.6%; with MDA-MB-231 [4], 92.2%.
